Data as given in US10689354B2, “Aminoazole derivative” (Teijin Pharma Limited, priority 2015, dated 2020).

How the values were obtained:
[1] = target: T1, androgen receptor (AR-LBD) (Rattus norvegicus, UniProt P15207); test: Evaluation of androgen receptor affinity (PolarScreen Androgen Receptor Competitor Assay Kit, Red; fluorescence polarization); settings: 22° C. for 5 hours, relative to binding rate of 1 μM DHT, read-out: AR affinity (pEC50) (converted)
T1 construct: 5 μL of 2×AR-LBD/Fluoromone AL Red Complex contained in the kit; purchased Invitrogen
T1 sequence (P15207 651-882 limits assumed): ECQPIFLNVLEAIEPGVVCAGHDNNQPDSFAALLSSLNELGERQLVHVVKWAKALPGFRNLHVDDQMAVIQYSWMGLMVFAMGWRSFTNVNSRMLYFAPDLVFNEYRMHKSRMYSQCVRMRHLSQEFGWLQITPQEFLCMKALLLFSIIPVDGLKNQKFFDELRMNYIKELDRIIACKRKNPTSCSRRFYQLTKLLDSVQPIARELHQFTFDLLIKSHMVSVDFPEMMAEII
Summary of the method: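 FP competition: compound + AR-LBD/Fluoromone AL Red tracer complex, 22° C, 5 h. Reference 1 μM DHT binding rate; pEC50 by 4-parameter fit.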

[2] = target: T2, human androgen receptor (Homo sapiens, UniProt P10275); test: Reporter assay of an androgen receptor responsive sequence (luciferase, transiently transfected HEK293 cells); type: cell-based; settings: 24 hours incubation, relative to activity of 100 nM DHT, read-out: AR transcriptive activity (pEC50) (converted)
T2 construct: expressed in transfected cells; host or cells: HEK293
T2 sequence (P10275 1-920): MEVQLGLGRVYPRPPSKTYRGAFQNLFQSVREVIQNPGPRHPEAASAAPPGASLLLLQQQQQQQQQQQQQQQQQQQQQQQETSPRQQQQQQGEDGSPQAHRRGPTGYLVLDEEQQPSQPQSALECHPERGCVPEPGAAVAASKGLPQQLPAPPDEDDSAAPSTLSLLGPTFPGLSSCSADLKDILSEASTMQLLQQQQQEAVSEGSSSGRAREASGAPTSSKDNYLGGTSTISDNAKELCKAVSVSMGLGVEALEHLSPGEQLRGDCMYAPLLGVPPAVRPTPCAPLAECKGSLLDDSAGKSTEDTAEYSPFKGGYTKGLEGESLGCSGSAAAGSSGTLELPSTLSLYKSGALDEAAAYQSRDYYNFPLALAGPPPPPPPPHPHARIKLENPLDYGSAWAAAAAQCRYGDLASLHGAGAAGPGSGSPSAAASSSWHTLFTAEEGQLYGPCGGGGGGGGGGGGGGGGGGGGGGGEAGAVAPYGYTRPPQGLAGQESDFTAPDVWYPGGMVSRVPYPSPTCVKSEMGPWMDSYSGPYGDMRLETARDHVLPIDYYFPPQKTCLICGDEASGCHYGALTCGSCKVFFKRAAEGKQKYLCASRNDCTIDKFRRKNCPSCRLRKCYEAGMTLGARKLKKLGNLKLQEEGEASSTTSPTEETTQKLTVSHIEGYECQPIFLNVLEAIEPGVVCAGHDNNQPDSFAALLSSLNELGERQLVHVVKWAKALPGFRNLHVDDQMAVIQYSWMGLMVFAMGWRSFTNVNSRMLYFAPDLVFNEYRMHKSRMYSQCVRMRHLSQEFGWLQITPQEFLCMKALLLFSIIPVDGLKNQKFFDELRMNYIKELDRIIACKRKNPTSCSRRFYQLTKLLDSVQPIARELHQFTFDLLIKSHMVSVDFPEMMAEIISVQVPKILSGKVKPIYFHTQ
Summary of the method: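 Agonism scored as pEC50, fitted by 4-parameter curve against the response to 100 nM DHT, from dual-luciferase readout after 24 h compound treatment. Cells were HEK293 co-transfected (3 h) with human AR expression vector, androgen-responsive firefly reporter and Renilla control, in charcoal-stripped serum.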

Row | EC50 [1] [nM] | EC50 [2] [nM] | SMILES
1 | 20 | 316 | CSc1cccc(CN(c2ccc(C#N)cc2)c2nc(C(=O)NS(C)(=O)=O)c(C)s2)c1 [Compound 431, 2-[4-cyano-N-[(3-methylsulfanylphenyl)methyl]anilino]-5-methyl-N-methylsulfonyl-thiazole-4-carboxamide]
2 | 25.1 | 398 | Cc1sc(N(CCCC(C)C)c2ccc(C#N)cc2)nc1C(=O)NS(C)(=O)=O [Compound 438, 2-(4-cyano-N-isohexyl-anilino)-5-methyl-N-methylsulfonyl-thiazole-4-carboxamide]
3 | 50.1 | 126 | CC(C)=CCN(c1ccc(C#N)cc1)c1nc(C(=O)NS(C)(=O)=O)c(C)s1 [Compound 439, 2-[4-cyano-N-(3-methylbut-2-enyl)anilino]-5-methyl-N-methylsulfonyl-thiazole-4-carboxamide]
4 | 316 | 1260 | Cc1sc(N(CCC2CCCC(O)C2)c2ccc(C#N)cc2)nc1C(=O)NS(C)(=O)=O (stereo not shown) [Compound 442, 2-[4-cyano-N-[2-(3-hydroxycyclohexyl)ethyl]anilino]-5-methyl-N-methylsulfonyl-thiazole-4-carboxamide]
5 | 200 | 501 | Cc1sc(N(CCC2CCCCO2)c2ccc(C#N)cc2)nc1C(=O)NS(C)(=O)=O (stereo not shown) [Compound 443, 2-[4-cyano-N-(2-tetrahydropyran-2-ylethyl)anilino]-5-methyl-N-methylsulfonyl-thiazole-4-carboxamide]
6 | 50.1 | 2510 | Cc1sc(N(CC2CC3CCC2C3)c2ccc(C#N)cc2)nc1C(=O)NS(C)(=O)=O (stereo not shown) [Compound 447, 2-[4-cyano-N-(norbornan-2-ylmethyl)anilino]-5-methyl-N-methylsulfonyl-thiazole-4-carboxamide]
7 | 50.1 | 200 | CSc1ccccc1CN(c1ccc(C#N)cc1)c1nc(C(=O)NS(C)(=O)=O)c(C)s1 [Compound 452, 2-[4-cyano-N-[(2-methylsulfanylphenyl)methyl]anilino]-5-methyl-N-methylsulfonyl-thiazole-4-carboxamide]
8 | 100 | 501 | COc1ccccc1CN(c1ccc(C#N)cc1)c1nc(C(=O)NS(C)(=O)=O)c(C)s1 [Compound 455, 2-[4-cyano-N-[(2-methoxyphenyl)methyl]anilino]-5-methyl-N-methylsulfonyl-thiazole-4-carboxamide]
9 | 50.1 | 200 | Cc1sc(N(Cc2csc(C(C)C)n2)c2ccc(C#N)cc2)nc1C(=O)NS(C)(=O)=O [Compound 456, 2-[4-cyano-N-[(2-isopropylthiazol-4-yl)methyl]anilino]-5-methyl-N-methylsulfonyl-thiazole-4-carboxamide]
10 | 100 | 158 | Cc1sc(N(Cc2ccccc2O)c2ccc(C#N)cc2)nc1C(=O)NS(C)(=O)=O [Compound 461, 2-[4-cyano-N-[(2-hydroxyphenyl)methyl]anilino]-5-methyl-N-methylsulfonyl-thiazole-4-carboxamide]
11 | 100 | 398 | Cc1sc(N(Cc2cnc(C3CC3)s2)c2ccc(C#N)cc2)nc1C(=O)NS(C)(=O)=O [Compound 466, 2-[4-cyano-N-[(2-cyclopropylthiazol-5-yl)methyl]anilino]-5-methyl-N-methylsulfonyl-thiazole-4-carboxamide]

Further lines, the compound ahead of its results:

Row | SMILES | EC50 [1] [nM] | EC50 [2] [nM]
12 | Cc1sc(N(Cc2ccc(OC(F)(F)F)c(F)c2)c2ccc(C#N)cc2)nc1C(=O)NS(C)(=O)=O [Compound 420, 2-[4-cyano-N-[[3-fluoro-4-(trifluoromethoxy)phenyl]methyl]anilino]-5-methyl-N-methylsulfonyl-thiazole-4-carboxamide] | 20 | 158
13 | Cc1sc(N(Cc2ccc(OC(F)(F)F)c(Cl)c2)c2ccc(C#N)cc2)nc1C(=O)NS(C)(=O)=O [Compound 421, 2-[N-[[3-chloro-4-(trifluoromethoxy)phenyl]methyl]-4-cyano-anilino]-5-methyl-N-methylsulfonyl-thiazole-4-carboxamide] | 20 | 200
14 | Cc1sc(N(Cc2cccc3nsnc23)c2ccc(C#N)cc2)nc1C(=O)NS(C)(=O)=O [Compound 437, 2-[N-(2,1,3-benzothiadiazol-4-ylmethyl)-4-cyano-anilino]-5-methyl-N-methylsulfonyl-thiazole-4-carboxamide] | 50.1 | 126
15 | Cc1sc(N(Cc2cccc(C(F)F)c2)c2ccc(C#N)cc2)nc1C(=O)NS(C)(=O)=O [Compound 450, 2-[4-cyano-N-[[3-(difluoromethyl)phenyl]methyl]anilino]-5-methyl-N-methylsulfonyl-thiazole-4-carboxamide] | 31.6 | 50.1
16 | Cc1sc(N(Cc2ccccc2)c2ccc(C#N)c(C(F)(F)F)c2)nc1C(=O)NS(C)(=O)=O [Compound 451, 2-[N-benzyl-4-cyano-3-(trifluoromethyl)anilino]-5-methyl-N-methylsulfonyl-thiazole-4-carboxamide] | 25.1 | 50.1
17 | Cc1sc(N(CC2Cc3ccccc3C2)c2ccc(C#N)cc2)nc1C(=O)NS(C)(=O)=O [Compound 454, 2-[4-cyano-N-(indan-2-ylmethyl)anilino]-5-methyl-N-methylsulfonyl-thiazole-4-carboxamide] | 50.1 | 251
18 | Cc1sc(N(CC(=O)c2ccccc2)Cc2ccccc2)nc1C(=O)NS(C)(=O)=O [Compound 463, 2-[benzyl(phenacyl)amino]-5-methyl-N-methylsulfonyl-thiazole-4-carboxamide] | 316 | 5010
19 | Cc1sc(N(Cc2csc3cccc(C)c23)c2ccc(C#N)cc2)nc1C(=O)NS(C)(=O)=O [Compound 464, 2-[4-cyano-N-[(4-methylbenzothiophen-3-yl)methyl]anilino]-5-methyl-N-methylsulfonyl-thiazole-4-carboxamide] | 63.1 | 5010
20 | Cc1sc(N(Cc2csc(COc3ccccc3)n2)c2ccc(C#N)cc2)nc1C(=O)NS(C)(=O)=O [Compound 465, 2-[4-cyano-N-[[2-(phenoxymethyl)thiazol-4-yl]methyl]anilino]-5-methyl-N-methylsulfonyl-thiazole-4-carboxamide] | 25.1 | 794
21 | Cc1sc(N(Cc2ccc(F)cc2)c2ccc(C(F)(F)F)nc2)nc1C(=O)NS(C)(=O)=O [Compound 469, 2-[(4-fluorophenyl)methyl-[6-(trifluoromethyl)-3-pyridyl]amino]-5-methyl-N-methylsulfonyl-thiazole-4-carboxamide] | 158 | 316
22 | Cc1sc(N(Cc2ccc(Cl)cc2)c2ccc(C(F)(F)F)nc2)nc1C(=O)NS(C)(=O)=O [Compound 470, 2-[(4-chlorophenyl)methyl-[6-(trifluoromethyl)-3-pyridyl]amino]-5-methyl-N-methylsulfonyl-thiazole-4-carboxamide] | 126 | 158
23 | Cc1sc(N(Cc2ccc(OC(F)(F)F)cc2)c2ccc(C(F)(F)F)nc2)nc1C(=O)NS(C)(=O)=O [Compound 471, 5-methyl-N-methylsulfonyl-2-[[4-(trifluoromethoxy)phenyl]methyl-[6-(trifluoromethyl)-3-pyridyl]amino]thiazole-4-carboxamide] | 100 | 1000
